Experimental data taken from article PMC2947314 (Cellular Signalling, 2010).

Molecular target: Sphingosine kinase 1 (SK1) (Homo sapiens, UniProt Q9NYA1)
Test: […]S1P formation assay, single concentration […]
Type: biochemical
Details: read-out: % inhibition at 50 μM

Chain of Sphingosine kinase 1 (SK1) (Q9NYA1 whole entry): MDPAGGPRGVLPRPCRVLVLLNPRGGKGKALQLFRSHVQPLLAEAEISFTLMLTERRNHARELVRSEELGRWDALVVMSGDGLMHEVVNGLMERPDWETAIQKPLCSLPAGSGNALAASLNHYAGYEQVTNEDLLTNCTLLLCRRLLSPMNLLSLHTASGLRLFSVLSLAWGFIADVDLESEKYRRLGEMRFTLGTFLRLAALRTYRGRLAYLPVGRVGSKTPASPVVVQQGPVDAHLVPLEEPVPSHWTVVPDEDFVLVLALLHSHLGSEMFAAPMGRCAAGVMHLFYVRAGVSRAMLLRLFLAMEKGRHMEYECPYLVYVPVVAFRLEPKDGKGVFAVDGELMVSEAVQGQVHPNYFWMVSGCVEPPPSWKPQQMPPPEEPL

`CCCCCCCCc1ccc(CCC(N)(CO)CO)cc1` [FTY720] showed an inhibition at 50 µM of about 40%.
